Each molecule was assayed against T1, BaF3 TELJAK3 cells (Homo sapiens, UniProt P52333) (assay: Cellular screening, BaF3 TEL:JAK3 cells, Alamar Blue). Conditions: 40 hr, read-out: BafT_J3 IC50_nM.
T1 construct: fused on or other part: TEL (ETV6) N-terminal part, coding nucleotides 1-487, serves as the oligomerising partner; It is fused through a Sal I site to the JAK3 kinase domain and expressed from pTRE2 in BaF3 cells bearing pTET-off; P41212 (Transcription factor ETV6)
T1 sequence (P52333 1-1124): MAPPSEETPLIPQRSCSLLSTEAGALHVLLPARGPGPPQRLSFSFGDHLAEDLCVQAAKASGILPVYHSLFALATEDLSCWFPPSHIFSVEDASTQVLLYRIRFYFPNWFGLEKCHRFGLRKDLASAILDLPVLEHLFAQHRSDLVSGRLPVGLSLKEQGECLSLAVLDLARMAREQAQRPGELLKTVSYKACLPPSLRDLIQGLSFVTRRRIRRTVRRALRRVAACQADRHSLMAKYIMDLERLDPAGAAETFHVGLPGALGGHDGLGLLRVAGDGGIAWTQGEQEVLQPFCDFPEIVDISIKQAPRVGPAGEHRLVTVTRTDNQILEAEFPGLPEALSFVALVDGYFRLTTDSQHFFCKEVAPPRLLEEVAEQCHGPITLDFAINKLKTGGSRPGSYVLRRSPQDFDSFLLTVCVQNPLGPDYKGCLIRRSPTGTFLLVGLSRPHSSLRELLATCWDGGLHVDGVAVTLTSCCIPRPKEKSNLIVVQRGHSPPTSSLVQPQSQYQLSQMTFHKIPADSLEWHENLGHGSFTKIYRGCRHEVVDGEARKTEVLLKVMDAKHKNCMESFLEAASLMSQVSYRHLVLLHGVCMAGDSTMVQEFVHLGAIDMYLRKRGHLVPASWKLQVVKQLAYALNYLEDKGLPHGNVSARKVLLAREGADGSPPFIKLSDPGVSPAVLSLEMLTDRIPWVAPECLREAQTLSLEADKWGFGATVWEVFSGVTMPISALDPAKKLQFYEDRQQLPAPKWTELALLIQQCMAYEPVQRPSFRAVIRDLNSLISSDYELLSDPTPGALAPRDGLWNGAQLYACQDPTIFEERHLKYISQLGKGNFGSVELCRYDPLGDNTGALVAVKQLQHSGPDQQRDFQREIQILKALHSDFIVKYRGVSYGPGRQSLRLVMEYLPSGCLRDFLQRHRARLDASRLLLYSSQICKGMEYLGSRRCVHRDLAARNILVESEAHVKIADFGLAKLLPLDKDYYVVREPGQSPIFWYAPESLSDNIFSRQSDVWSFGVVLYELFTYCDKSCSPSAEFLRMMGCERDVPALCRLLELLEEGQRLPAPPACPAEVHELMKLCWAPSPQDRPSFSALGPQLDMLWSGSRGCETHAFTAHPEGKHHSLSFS
Assay type: cell-based
Method in brief: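 Alamar Blue signal at 544 nm, developed for 4–6 h, measured viability after 40 h of compound treatment at 37 °C, 5% CO2. Cells were growth-factor-independent BaF3 lines transfected with a TEL/JAK3 kinase-domain fusion under tet-off control. They were cultured in DMEM, 10% Tet-approved FBS, lacking WEHI 3B conditioned medium.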

`C=CC(=O)Nc1ccc(Sc2nc(Nc3ccc4c(c3)OCO4)ncc2C)cc1` [Compound 284, N-(4-(2-(benzo[d][1,3]dioxol-5-ylao)-5-methylpyrimidin-4-ylthio)phenyl)acrylamide] and `C=CC(=O)Nc1ccc(Sc2ccnc(Nc3ccc4c(c3)OCO4)n2)cc1` [Compound 393, N-(4-(2-(benzo[d][1,3]dioxol-5-ylao)pyrimidin-4-ylthio)phenyl)acrylamide] cannot be ordered by GI50: under 1 µM for the first, under 1 µM for the second.

`C=CC(=O)Nc1cc(C)c(Sc2nc(Nc3ccc(N4CCOCC4)cc3)ncc2C)c(C)c1` [Compound 164, N-(3,5-dimethyl-4-(5-methyl-2-(4-morpholinophenylao)pyrimidin-4-ylthio)phenyl)acrylamide] and `C=CC(=O)Nc1ccc(Sc2nc(Nc3ccc(N4CCOCC4)cc3)ncc2C)c(Cl)c1C` [Compound 171, N-(3-chloro-2-methyl-4-(5-methyl-2-(4-morpholinophenylao)pyrimidin-4-ylthio)phenyl)acrylamide] cannot be ordered by GI50: under 1 µM for the first, under 5 µM for the second.

`C=CC(=O)Nc1ccc(Sc2ccnc(Nc3ccc(OC)cc3)n2)cc1` [Compound 74, N-(4-(2-(4-methoxyphenylao)pyrimidin-4-ylthio)phenyl)acrylamide] and `C=CC(=O)Nc1ccc(Sc2ccnc(Nc3ccc(Cl)cc3)n2)cc1` [Compound 353, N-(4-(2-(4-chlorophenylao)pyrimidin-4-ylthio)phenyl)acrylamide] cannot be ordered by GI50: under 1 µM for the first, under 5 µM for the second.

`C=CC(=O)Nc1ccc(Sc2nc(Nc3ccccc3O)ncc2C)cc1` [Compound 287, N-(4-(2-(2-hydroxyphenylao)-5-methylpyrimidin-4-ylthio)phenyl)acrylamide] and `C=CC(=O)Nc1ccc(Sc2nc(Nc3cccc(O)c3)ncc2C)cc1` [Compound 281, N-(4-(2-(3-hydroxyphenylao)-5-methylpyrimidin-4-ylthio)phenyl)acrylamide] cannot be ordered by GI50: under 20 µM for the first, under 1 µM for the second.

`C=CC(=O)Nc1ccc(Sc2ccnc(Nc3cccc(OC)c3)n2)cc1` [Compound 105, N-(4-(2-(3-methoxyphenylao)pyrimidin-4-ylthio)phenyl)acrylamide] and `C=CC(=O)Nc1ccc(Sc2ccnc(Nc3cccc(C(=O)OC)c3)n2)cc1` [Compound 356, methyl 3-(4-(4-acrylamidophenylthio)pyrimidin-2-ylao)benzoate] cannot be ordered by GI50: under 1 µM for the first, under 5 µM for the second.

`C=CC(=O)Nc1ccc(Sc2ccnc(Nc3ccc(F)c(C#N)c3)n2)cc1` [Compound 354, N-(4-(2-(3-cyano-4-fluorophenylao)pyrimidin-4-ylthio)phenyl)acrylamide] and `C=CC(=O)Nc1ccc(Sc2ccnc(Nc3cccc([N+](=O)[O-])c3)n2)cc1` [Compound 361, N-(4-(2-(3-nitrophenylao)pyrimidin-4-ylthio)phenyl)acrylamide] cannot be ordered by GI50: under 20 µM for the first, under 5 µM for the second.

First: CCC(=O)Nc1ccc(Sc2nc(Nc3ccc(N4CCOCC4)cc3)ncc2Cl)cc1 [Compound 347, N-(4-(5-chloro-2-(4-morpholinophenylao)pyrimidin-4-ylthio)phenyl)propionamide]
Second: CC(=O)Nc1ccc(Sc2nc(Nc3ccc(N4CCOCC4)cc3)ncc2C)cc1 [Compound 135, N-(4-(5-methyl-2-(4-morpholinophenylao)pyrimidin-4-ylthio)phenyl)acetamide]
The GI50 of the first is lower: under 1 µM for the first, over 20 µM for the second.

`COc1cc(Nc2nccc(Sc3ccc(NCC#N)cc3)n2)cc(OC)c1OC` [Compound 52, 2-(4-(2-(3,4,5-trimethoxyphenylao)pyrimidin-4-ylthio)phenylao)acetonitrile] and `C=CC(=O)Nc1ccc(Sc2ccnc(Nc3ccc(S(=O)(=O)N4CCOCC4)c(OC)c3)n2)cc1` [Compound 373, N-(4-(2-(3-methoxy-4-(morpholinosulfonyl)phenylao)pyrimidin-4-ylthio)phenyl)acrylamide] cannot be ordered by GI50: under 5 µM for the first, under 5 µM for the second.

`C=CC(=O)Nc1ccc(Sc2ccnc(Nc3cccc(S(N)(=O)=O)c3)n2)cc1` [Compound 364, N-(4-(2-(3-sulfamoylphenylao)pyrimidin-4-ylthio)phenyl)acrylamide] and `C=CC(=O)Nc1ccc(Sc2ccnc(Nc3ccccc3O)n2)cc1` [Compound 279, N-(4-(2-(2-hydroxyphenylao)pyrimidin-4-ylthio)phenyl)acrylamide] cannot be ordered by GI50: under 1 µM for the first, under 20 µM for the second.

First: Nc1ccc(Sc2nc(Nc3ccc(N4CCOCC4)cc3)ncc2Cl)cc1 [Compound 318, 4-(4-aophenylthio)-5-chloro-N-(4-morpholinophenyl)pyrimidin-2-ae]
Second: Nc1ccc(Sc2nc(Nc3ccc(N4CCOCC4)cc3)ncc2I)cc1 [Compound 309, 4-(4-aophenylthio)-5-iodo-N-(4-morpholinophenyl)pyrimidin-2-ae]
The GI50 of the first is higher: over 20 µM for the first, under 5 µM for the second.

`C=CC(=O)Nc1ccc(Sc2nc(Nc3ccc(N4CCS(=O)(=O)CC4)cc3)ncc2C)cc1` [Compound 298, N-{4-[(2-{[4-(1,1-dioxo-1λ^6,4-thiomorpholin-4-yl)phenyl]ao}-5-methylpyrimidin-4-yl)sulfanyl]phenyl}prop-2-enamide] and `Cc1cnc(Nc2ccc(N3CCOCC3)cc2)nc1Sc1ccc(NC(=O)/C(Br)=C\C(=O)O)cc1` [Compound 381, (E)-3-bromo-4-(4-(5-methyl-2-(4-morpholinophenylao)pyrimidin-4-ylthio)phenylao)-4-oxobut-2-enoic acid] cannot be ordered by GI50: under 1 µM for the first, under 20 µM for the second.

`C=CC(=O)Nc1ccc(Sc2ccnc(Nc3ccc(N4CCC(N5CCCC5)CC4)cc3)n2)cc1` [Compound 87, N-(4-(2-(4-(4-(pyrrolidin-1-yl)piperidin-1-yl)phenylao)pyrimidin-4-ylthio)phenyl)acrylamide] and `N#CCC(=O)Nc1ccc(Sc2ccnc(Nc3ccc(N4CCC(N5CCCC5)CC4)cc3)n2)cc1` [Compound 88, 2-cyano-N-(4-(2-(4-(4-(pyrrolidin-1-yl)piperidin-1-yl)phenylao)pyrimidin-4-ylthio)phenyl)acetamide] cannot be ordered by GI50: under 1 µM for the first, under 5 µM for the second.

`C=CC(=O)Nc1ccc(Sc2ccnc(Nc3ccc(C(=O)OC)cc3)n2)cc1` [Compound 357, methyl 4-(4-(4-acrylamidophenylthio)pyrimidin-2-ylao)benzoate] and `C=CC(=O)Nc1ccc(Sc2ccnc(Nc3cccc(N4CCCC4)c3)n2)cc1` [Compound 355, N-(4-(2-(3-(pyrrolidin-1-yl)phenylao)pyrimidin-4-ylthio)phenyl)acrylamide] cannot be ordered by GI50: under 5 µM for the first, under 5 µM for the second.

`N#Cc1nccc(Sc2ccc(Sc3ccnc(Nc4ccc(N5CCOCC5)cc4)n3)cc2)n1` [Compound 154, 4-(4-(2-(4-morpholinophenylao)pyrimidin-4-ylthio)phenylthio)pyrimidine-2-carbonitrile] and `c1cn(Cc2ccc(Sc3ccnc(Nc4ccc(N5CCOCC5)cc4)n3)cc2)cn1` [Compound 127, 4-(4-((1H-imidazol-1-yl)methyl)phenylthio)-N-(4-morpholinophenyl)pyrimidin-2-ae] cannot be ordered by GI50: under 5 µM for the first, under 20 µM for the second.

Going from `Cc1cnc(Nc2ccc(N3CCOCC3)cc2)nc1Sc1ccc(N2C(=O)CCC2=O)cc1` [Compound 384, 1-(4-(5-methyl-2-(4-morpholinophenylao)pyrimidin-4-ylthio)phenyl)pyrrolidine-2,5-dione] to `Cc1cnc(Nc2ccc(N3CCOCC3)cc2)nc1Sc1ccc2c(c1)CCCN2` [Compound 166, 5-methyl-N-(4-morpholinophenyl)-4-(1,2,3,4-tetrahydroquinolin-6-ylthio)pyrimidin-2-ae], the GI50 falls from over 20 µM to under 20 µM.

`C=CC(=O)Nc1ccc(Sc2nc(Nc3ccc(OC)c(O)c3)ncc2C)cc1` [Compound 283, N-(4-(2-(3-hydroxy-4-methoxyphenylao)-5-methylpyrimidin-4-ylthio)phenyl)acrylamide] and `CCOC(=O)c1nccn1Cc1ccc(Sc2ccnc(Nc3ccc(N4CCOCC4)cc3)n2)cc1` [Compound 148, ethyl 1-(4-(2-(4-morpholinophenylao)pyrimidin-4-ylthio)benzyl)-1H-imidazole-2-carboxylate] cannot be ordered by GI50: under 1 µM for the first, under 20 µM for the second.

`C=C(CN1CCOCC1)C(=O)Nc1cccc(Sc2ccnc(Nc3ccc(N4CCOCC4)cc3)n2)c1` [Compound 328, 2-(morpholinomethyl)-N-(3-(2-(4-morpholinophenylao)pyrimidin-4-ylthio)phenyl)acrylamide] showed a GI50 of under 5 µM.

From patent publication US8846704B2, “Thiopyrimidine-based compounds and uses thereof” (YM Biosciences Austraila Pty Ltd, priority 2007, dated 2014)
